Measured values from ChEMBL document CHEMBL4145523, “New selective cyclooxygenase-2 inhibitors from cyclocoumarol: Synthesis, characterization, biological evaluation and molecular modeling” (Eur J Med Chem, 2018).
The source made the active and inactive calls. The rule behind the calls is not given here.

What was measured:
[1] = target: T1, Prostaglandin G/H synthase 1 (Mus musculus, UniProt P22437); test: Inhibition of COX-1 in mouse RAW264.7 cells assessed as reduction in PGE2 production at 10 uM after 24 hrs by enzyme immunoassay; assay type: cell-based; details: raw264.7, 24 h
T1 sequence (P22437 whole entry): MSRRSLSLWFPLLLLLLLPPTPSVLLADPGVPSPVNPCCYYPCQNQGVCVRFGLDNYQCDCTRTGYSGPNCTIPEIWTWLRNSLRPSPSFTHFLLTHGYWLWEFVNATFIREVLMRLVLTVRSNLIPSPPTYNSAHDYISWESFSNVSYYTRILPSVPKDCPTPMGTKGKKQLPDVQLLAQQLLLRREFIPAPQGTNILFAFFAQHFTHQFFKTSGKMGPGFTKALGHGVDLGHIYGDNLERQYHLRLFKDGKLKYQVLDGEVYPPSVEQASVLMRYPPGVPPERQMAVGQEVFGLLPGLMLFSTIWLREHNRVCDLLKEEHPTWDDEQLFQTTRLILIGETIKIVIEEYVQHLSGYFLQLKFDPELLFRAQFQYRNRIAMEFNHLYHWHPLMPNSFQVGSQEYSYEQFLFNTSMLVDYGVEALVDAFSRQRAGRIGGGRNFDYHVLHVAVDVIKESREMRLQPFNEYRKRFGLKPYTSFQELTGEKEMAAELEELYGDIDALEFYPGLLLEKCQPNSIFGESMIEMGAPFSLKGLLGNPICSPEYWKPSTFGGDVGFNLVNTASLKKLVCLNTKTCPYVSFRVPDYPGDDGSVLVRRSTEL

RAW264.7 [2] = test: Down regulation of COX-1 expression in mouse RAW264.7 cells at 10 uM after 24 hrs by Western blot method; assay type: ADME, cell-based; details: raw264.7, 24 h
[3] = target: T2, Prostaglandin G/H synthase 2 (Mus musculus) (UniProt Q05769); test: Inhibition of COX-2 in mouse RAW264.7 cells assessed as reduction in PGE2 production preincubated for 2 hrs followed by LPS stimulation measured after 24 hrs by enzyme immunoassay; assay type: cell-based
T2 sequence (whole entry): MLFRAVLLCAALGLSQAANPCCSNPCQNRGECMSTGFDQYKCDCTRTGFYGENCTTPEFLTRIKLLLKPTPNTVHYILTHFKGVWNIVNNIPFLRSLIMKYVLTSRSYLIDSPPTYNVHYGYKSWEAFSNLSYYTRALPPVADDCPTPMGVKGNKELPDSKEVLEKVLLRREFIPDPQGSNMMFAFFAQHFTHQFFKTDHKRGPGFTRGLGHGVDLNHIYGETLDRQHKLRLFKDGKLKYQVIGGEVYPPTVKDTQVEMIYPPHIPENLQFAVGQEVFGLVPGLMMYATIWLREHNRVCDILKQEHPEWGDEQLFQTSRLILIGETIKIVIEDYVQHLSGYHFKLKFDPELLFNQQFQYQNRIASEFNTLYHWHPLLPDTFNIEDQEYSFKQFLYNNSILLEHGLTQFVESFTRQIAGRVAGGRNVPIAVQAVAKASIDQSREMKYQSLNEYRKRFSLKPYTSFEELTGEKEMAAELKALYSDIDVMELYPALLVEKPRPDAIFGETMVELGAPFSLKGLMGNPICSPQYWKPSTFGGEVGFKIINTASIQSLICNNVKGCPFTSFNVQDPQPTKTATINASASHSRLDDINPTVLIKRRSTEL

RAW264.7 [4] = test: Antiinflammatory activity against mouse RAW264.7 cells assessed as inhibition of LPS induced cox-2 expression at 5 to 20 uM preincubated for 2 hrs followed by LPS challenge measured after 24 hrs by Western blot method; assay type: functional, cell-based

Q: For COc1ccc(C2CC(C)(OC)Oc3c2c(=O)oc2ccccc32)cc1 (single isomer, unassigned), which “inhibition (INH)” value [1] is on record?
A: Not Active

Q: What about the Activity (RAW264.7 [2]) of the same compound?
A: Non-Toxic

Q: What about the inhibition [3] of the same compound?
A: Dose-dependent effect

Q: What about the inhibition (RAW264.7 [4]) of the same compound?
A: inactive
